Activity calls are given as the source filed them. The calls are words filed in the database; no cut-off is given here.
Tests used:
MDA-MB-231 [1] = assay: Cytotoxicity against estrogen receptor-negative human MDA-MB-231 cells assessed as cell viability after 72 hrs by MTT assay; format: functional, cell-based; details: MDA-MB-231, 72 h
MCF7 [2] = assay: Inhibition of NFkappaB activity in estrogen receptor-positive human MCF7 cells at 2 uM after 24 hrs by SEAP reporter assay; format: cell-based
MCF7 [3] = assay: Cytotoxicity against estrogen receptor-positive human MCF7 cells assessed as cell viability after 72 hrs by MTT assay; format: functional, cell-based; details: MCF7, 72 h
MDA-MB-231 [4] = assay: Inhibition of NFkappaB activity in estrogen receptor-negative human MDA-MB-231 cells at 2 uM after 24 hrs by SEAP reporter assay; format: cell-based
MDA-MB-231 [5] = assay: Cell cycle arrest in estrogen receptor-negative human MDA-MB-231 cells assessed as accumulation at G1 phase at 2 uM after 24 hrs by Propidium iodide staining-based flow cytometric analysis (reference value: 54.66 +/- 2.51%); format: functional
MDA-MB-231 [6] = assay: Cell cycle arrest in estrogen receptor-negative human MDA-MB-231 cells assessed as accumulation at S phase at 2 uM after 24 hrs by Propidium iodide staining-based flow cytometric analysis (reference value: 19 +/- 1%); format: functional
MDA-MB-231 [7] = assay: Cell cycle arrest in estrogen receptor-negative human MDA-MB-231 cells assessed as decrease in Cyclin E expression at 2 uM after 24 hrs by Western blotting analysis; format: functional, cell-based
MDA-MB-231 [8] = assay: Inhibition of NFkappaB activity in estrogen receptor-negative human MDA-MB-231 cells assessed as upregulation of p27 gene expression at 2 uM after 24 hrs by luciferase reporter gene assay relative to control; format: cell-based
MDA-MB-231 [9] = assay: Induction of apoptosis in estrogen receptor-negative human MDA-MB-231 cells assessed as increase in PARP cleavage at 2 uM after 24 hrs by Western blotting analysis; format: functional, cell-based
MDA-MB-231 [10] = assay: Cell cycle arrest in estrogen receptor-negative human MDA-MB-231 cells assessed as accumulation at G2/M phase at 2 uM after 24 hrs by Propidium iodide staining-based flow cytometric analysis (reference value: 26.33 +/- 3.05%); format: functional
MDA-MB-231 [11] = assay: Inhibition of NFkappaB activity in estrogen receptor-negative human MDA-MB-231 cells assessed as reduction of p65 expression at 2 uM after 24 hrs by Western blotting analysis; format: cell-based
MDA-MB-231 [12] = assay: Inhibition of NFkappaB activity in estrogen receptor-negative human MDA-MB-231 cells assessed as reduction of Bcl-xL expression at 2 uM after 24 hrs by Western blotting analysis; format: cell-based
MDA-MB-231 [13] = assay: Inhibition of NFkappaB activity in estrogen receptor-negative human MDA-MB-231 cells assessed as inhibition of cyclin D1 promoter activation at 2 uM by chromatin immunoprecipitation assay; format: cell-based
MDA-MB-231 [14] = assay: Induction of apoptosis in estrogen receptor-negative human MDA-MB-231 cells assessed as increase in Rb cleavage at 2 uM after 24 hrs by Western blotting analysis; format: functional, cell-based
MDA-MB-231 [15] = assay: Reduction in HDAC-3 nuclear expression in estrogen receptor-negative human MDA-MB-231 cells at 2 uM after 24 hrs by Western blotting analysis; format: functional, cell-based
MDA-MB-231 [16] = assay: Induction of apoptosis in estrogen receptor-negative human MDA-MB-231 cells assessed as reduced procaspase-3 level at 2 uM after 24 hrs by Western blotting analysis; format: functional, cell-based
MDA-MB-231 [17] = assay: Effect on p21 gene expression in estrogen receptor-negative human MDA-MB-231 cells at 2 uM after 24 hrs by luciferase reporter gene assay; format: functional, cell-based
MDA-MB-231 [18] = assay: Cell cycle arrest in estrogen receptor-negative human MDA-MB-231 cells assessed as decrease in CDK2 expression at 2 uM after 24 hrs by Western blotting analysis; format: functional, cell-based
MDA-MB-231 [19] = assay: Inhibition of NFkappaB activity in estrogen receptor-negative human MDA-MB-231 cells assessed as retention of NFKappaB/Rel A in cytoplasm at 2 uM after 24 hrs by DAPI/PI staining-based confocal microscopy; format: cell-based
MDA-MB-231 [20] = assay: Inhibition of NFkappaB activity in estrogen receptor-negative human MDA-MB-231 cells assessed as cytoplasmic localization of p65 at 2 uM after 24 hrs by ELISA; format: cell-based
MDA-MB-231 [21] = assay: Reduction in HDAC-8 nuclear expression in estrogen receptor-negative human MDA-MB-231 cells at 2 uM after 24 hrs by Western blotting analysis; format: functional, cell-based
MDA-MB-231 [22] = assay: Inhibition of NFkappaB activity in estrogen receptor-negative human MDA-MB-231 cells assessed as reduction of cyclin D1 expression at 2 uM after 24 hrs by Western blotting analysis; format: cell-based

Compound | IC50 (MDA-MB-231 [1]) [µM] | inhibition (MCF7 [2]) | IC50 (MCF7 [3]) [µM] | inhibition (MDA-MB-231 [4]) | further results
O=C(/C=C/C[C@@H]1CC=CC(=O)O1)CCc1cccc(O)c1 | 6.18 | Active | 5.12 | Active | 
O=C(/C=C/C[C@H]1CC=CC(=O)O1)CCc1cccc(O)c1 | 6.68 | Active | 4.32 | Active | 
CCCCCCCCCCCCCCCCCC(=O)/C=C/C[C@@H]1CC=CC(=O)O1 | 2.1 | Active | 2.32 | Active | Activity (MDA-MB-231 [5]): 74%; Activity (MDA-MB-231 [6]): 6.33%; Activity (MDA-MB-231 [7]): Active; fold change (FC) (MDA-MB-231 [8]): 2.5; Activity (MDA-MB-231 [9]): Active; Activity (MDA-MB-231 [10]): 19.6%; inhibition (MDA-MB-231 [11]): Active; inhibition (MDA-MB-231 [12]): Active; inhibition (MDA-MB-231 [13]): Active; Activity (MDA-MB-231 [14]): Active; Activity (MDA-MB-231 [15]): Active; Activity (MDA-MB-231 [16]): Active; Activity (MDA-MB-231 [17]): inactive; Activity (MDA-MB-231 [18]): Active; NF-kappaB activity inhibition (MDA-MB-231 [19]): Active; inhibition (MDA-MB-231 [20]): Active; Activity (MDA-MB-231 [21]): Active; inhibition (MDA-MB-231 [22]): Active
CCCCCCCCCCCCCCCCCCCC(=O)/C=C/C[C@H]1CC=CC(=O)O1 | 3.58 | Active | 3.12 | Active | 
O=C(/C=C/C[C@@H]1CC=CC(=O)O1)CCc1ccc2ccccc2c1 | 4.74 | Active | 4.72 | Active | 
O=C(/C=C/C[C@H]1CC=CC(=O)O1)CCc1cccc(Oc2ccccc2)c1 | 3.2 | Active | 3.36 | Active | 
CCCCCCCCCCCC(=O)/C=C/C[C@H]1CC=CC(=O)O1 | 3.16 | Active | 4 | Active | 
O=C(/C=C/C[C@@H]1CC=CC(=O)O1)CCc1ccc2c(c1)OCO2 | 7.93 | Active | 6.56 | Active | 
O=C(/C=C/C[C@H]1CC=CC(=O)O1)CCc1ccc2ccccc2c1 | 3.64 | Active | 4.48 | Active | 
O=C(/C=C/C[C@H]1CC=CC(=O)O1)CCc1c[nH]c2ccccc12 | 3.98 | Active | 3.91 | Active | 
CCCCCCCCCCCCCCCC(=O)/C=C/C[C@H]1CC=CC(=O)O1 | 3.98 | Active | 3.79 | Active | 
CCCCCCCCCCCC(=O)/C=C/C[C@@H]1CC=CC(=O)O1 | 5.42 | Active | 4.56 | Active | 
CCCCCCCCCCCCCCCCCCCC(=O)/C=C/C[C@@H]1CC=CC(=O)O1 | 6.22 | Active | 5.57 | Active | 
CC(=O)/C=C/C[C@@H]1CC=CC(=O)O1 | 3.07 | Active | 3.36 | Active | Activity (MDA-MB-231 [5]): 68%; Activity (MDA-MB-231 [6]): 6%; Activity (MDA-MB-231 [7]): Active; Activity (MDA-MB-231 [9]): Active; Activity (MDA-MB-231 [10]): 26%; Activity (MDA-MB-231 [14]): Active; Activity (MDA-MB-231 [15]): Active; Activity (MDA-MB-231 [16]): Active; Activity (MDA-MB-231 [17]): inactive; Activity (MDA-MB-231 [18]): Active; NF-kappaB activity inhibition (MDA-MB-231 [19]): Active; Activity (MDA-MB-231 [21]): Active
CCCCCCCC/C=C\CCCCCCCC(=O)/C=C/C[C@@H]1CC=CC(=O)O1 | 5.54 | Active | 5.12 | Active | 
O=C(/C=C/C[C@H]1CC=CC(=O)O1)CCc1ccc2c(c1)OCO2 | 3.09 | Active | 3.31 | Active | 
O=C(/C=C/C[C@H]1CC=CC(=O)O1)CCc1ccco1 | 3.34 | Active | 3.52 | Active | 
CCCCCCCCCCCCCCCCC/C=C/C(=O)/C=C/C[C@H]1CC=CC(=O)O1 | 2.87 | Active | 3.04 | Active | Activity (MDA-MB-231 [5]): 72.6%; Activity (MDA-MB-231 [6]): 8%; Activity (MDA-MB-231 [10]): 19.3%; inhibition (MDA-MB-231 [11]): Active; inhibition (MDA-MB-231 [12]): Active; Activity (MDA-MB-231 [15]): Active; Activity (MDA-MB-231 [17]): inactive; NF-kappaB activity inhibition (MDA-MB-231 [19]): Active; Activity (MDA-MB-231 [21]): Active; inhibition (MDA-MB-231 [22]): Active
O=C(/C=C/C[C@@H]1CC=CC(=O)O1)CCc1c[nH]c2ccccc12 | 7.08 | Active | 5.73 | Active | 
CCCCCCCCCCCCCCCCC/C=C/C(=O)/C=C/C[C@@H]1CC=CC(=O)O1 | 4.49 | Active | 3.76 | Active | 
CCCCCCCC/C=C\CCCCCCCC(=O)/C=C/C[C@H]1CC=CC(=O)O1 | 2.96 | Active | 2.7 | Active | Activity (MDA-MB-231 [5]): 70.6%; Activity (MDA-MB-231 [6]): 8%; Activity (MDA-MB-231 [10]): 21.3%; inhibition (MDA-MB-231 [11]): Active; inhibition (MDA-MB-231 [12]): Active; Activity (MDA-MB-231 [15]): Active; Activity (MDA-MB-231 [17]): inactive; NF-kappaB activity inhibition (MDA-MB-231 [19]): Active; Activity (MDA-MB-231 [21]): Active; inhibition (MDA-MB-231 [22]): Active
O=C(/C=C/C[C@@H]1CC=CC(=O)O1)CCc1ccco1 | 3.37 | Active | 4.37 | Active | 
O=C(/C=C/C[C@@H]1CC=CC(=O)O1)CCc1cccc(Oc2ccccc2)c1 | 4.91 | Active | 4.56 | Active | 
O=C(/C=C/C[C@@H]1CC=CC(=O)O1)CCc1ccccc1 [R-RUGULACTONE] | 3.44 | Active | 3.59 | Active | Activity (MDA-MB-231 [5]): 70%; Activity (MDA-MB-231 [6]): 8.33%; Activity (MDA-MB-231 [7]): Active; Activity (MDA-MB-231 [9]): Active; Activity (MDA-MB-231 [10]): 21.66%; Activity (MDA-MB-231 [14]): Active; Activity (MDA-MB-231 [15]): Active; Activity (MDA-MB-231 [16]): Active; Activity (MDA-MB-231 [17]): inactive; Activity (MDA-MB-231 [18]): Active; NF-kappaB activity inhibition (MDA-MB-231 [19]): Active; Activity (MDA-MB-231 [21]): Active
CCCCCCCCCCCCCCCC(=O)/C=C/C[C@@H]1CC=CC(=O)O1 | 4.11 | Active | 3.96 | Active | 
CCCCCCCCCCCCCCCCCC(=O)/C=C/C[C@H]1CC=CC(=O)O1 | 3.93 | Active | 4.32 | Active | 

From ChEMBL document CHEMBL3124770, “Rugulactone derivatives act as inhibitors of NF-κB activation and modulates the transcription of NF-κB dependent genes in MDA-MB-231cells” (Bioorg Med Chem Lett, 2014)
